Source: patent US20040208924A1, “Pharmaceutical tablet having a high api content” (priority 2001, published 2004)

Columns and labels:
[1] = test system: matrix metalloproteinase; conditions: statement referring to WO 97/12902 and U.S. Pat. No. 5,981,490; cited from earlier work
[2] = Compactability (slope of tensile strength versus compression pressure) of API blend compressed on an Instron; format: physicochemical
Description: In order to evaluate the compressibility and compactability of all API lots generated by modifying the crystallization process, a blend of 80% API, 19.5% microcrystalline cellulose and 0.5% magnesium stearate was prepared by mixing in a tumble mixer for 5 minutes. Each mixture was then compressed on an Instron (Universal Stress-Strain Analyzer) using a 0.5 inch diameter tooling (upper and lower punches and die) at a speed of 100 mm/min at compression forces of 5, 10, 15, 20 and 25 kN each for a replicate of three tablets. The tablet dimensions were measured using a digital Vernier calliper and the strength of the tablets were determined using an Erweka hardness tester. The volume of the tablet can be calculated from the tablet dimensions normalized for the true density of the mixture being compressed. The compressibility curves are generated by plotting the solid fraction of the tablet generated at each compression pressure versus the respective compression pressure. The area under such a curve represents the extent of volume reduction. The force required to break the tablets is normalized for the area of the tablet to obtain the tensile strength value. Slopes for profiles of tensile strength versus the compression pressure represent the compactability of the material while the area under the curve of tensile strength versus the solid fraction of the tablets represents the extent of compaction or toughness of the material.

[3] = Solid state stability of crystal forms; format: physicochemical; conditions: out of four crystal structures (forms 4, 5, 6, 7)
Text: Due to the unique structure of the API material at least four different groups of crystal structures were observed (forms 4, 5, 6, 7) and analyzed by single crystal x-ray. […] Orthorhombic Form 6 consisted of a group of isostructural (1:1) solvates which accommodates solvents such as EtOAc, acetone and MEK. […] An exhaustive study of API crystallization on the feasibility of various solvents, control of polymorphs, and robustness of process concluded that the selected form could be consistently produced and kept stable in iPrOAc (or BuOAc)/Heptane (or Cyclohexane), following which a reproducible crystallization procedure in the iPrOAc/heptane solvent system was developed and implemented. This procedure, associated with the aminolysis of penultimate compound (Chemical Abstracts Systematic Name, (αS)-α-(Benzoylthio)-3,4,4-trimethyl-2,5-dioxo-1-imidazolidinebutanoyl-L-leucyl-N,3-dimethyl-L-valinamide), is successful in purging undesirable side products/impurities such as α,α′-Dithiobis[N-[1-[[[2,2-dimethyl-1-[(methylamino)carbonyl]propyl]amino]-carbonyl]-3-methylbutyl]-3,4,4-trimethyl-2,5-dioxo-1-imidazolidinebutanamide] which is the S,S′-dimer of the API. The crystallization procedure is further described in Table 1.

Row | product compactability ([2]; 50-g sample recrystallized using 1% AirJet-milled seeds) | product compactability ([2]; 50-g sample recrystallized using 1% ball-milled seeds) | product compactability ([2]; 50-g sample recrystallized using 1% seeds crystallized from a ground seeded batch) | compactability ([2]; crystallized with 1% ground seeds, without sonication) | Compound | matrix metalloproteinase inhibition [1] | stability of the crystal structure in the solid state [3]
1 | 4.2 kPa/MPa | 5.9 Kpa/MPa | 5.3 kPa/MPa | 10.5 kPa/MPa | CNC(=O)[C@@H](NC(=O)[C@H](CC(C)C)NC(=O)[C@@H](S)CCN1C(=O)N(C)C(C)(C)C1=O)C(C)(C)C [API, N-[(2S)-2-Mercapto-1-oxo-4-(3,4,4-trimethyl-2,5-dioxo-1-imidazolidinyl)butyl]-L-leucyl-N,3-dimethyl-L-valinamide] | effective matrix metalloproteinase inhibitor | –
2 | – | – | – | – | CNC(=O)[C@@H](NC(=O)[C@H](CC(C)C)NC(=O)[C@@H](S)CCN1C(=O)N(C)C(C)(C)C1=O)C(C)(C)C [Form 4, N-[(2S)-2-Mercapto-1-oxo-4-(3,4,4-trimethyl-2,5-dioxo-1-imidazolidinyl)butyl]-L-leucyl-N,3-dimethyl-L-valinamide] | – | did not transform/decompose to other crystalline structures in the solid state
